# From the supplement of paper PMC10307832
# What was measured:
# Assay in all cases: relative viability (nuclei count vs DMSO), 5 days (fraction); higher = more cells survive
# [1] = compound: CCC1=CN=CN=C1N2CCN(CC2)CC3=NC4=C(N3)C=C(C=C4)C(F)(F)F + CC(=O)Nc1cccc(-n2c(=O)n(C3CC3)c(=O)c3c(Nc4ccc(I)cc4F)n(C)c(=O)c(C)c32)c1 [Trametinib] (partner 0.02 µM)
# Procedure, shortened: (§1)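 Medians of duplicate plates are given as relative viability. That measure is the nuclei count in treated wells divided by the count in vehicle wells. Counts were taken on 4× images of lung cancer cell lines in 1536-well plates, 5 days after pin-tool dosing the day after seeding with one drug alone or a fixed anchor-drug dose plus five library-drug doses (not always all listed) in √10 steps.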
# [2] = compound: CCC1=CN=CN=C1N2CCN(CC2)CC3=NC4=C(N3)C=C(C=C4)C(F)(F)F + Nc1nc2[nH]cc(CCc3ccc(C(=O)N[C@@H](CCC(=O)O)C(=O)O)cc3)c2c(=O)[nH]1 [Pemetrexed] (partner 0.2 µM)
# Procedure, shortened: as §1
# [3] = compound: CCn1c(-c2nonc2N)nc2cnc(Oc3cccc(NC(=O)c4ccc(OCCN5CCOCC5)cc4)c3)cc21 + CCNC(=O)c1noc(-c2cc(C(C)C)c(O)cc2O)c1-c1ccc(CN2CCOCC2)cc1 [Luminespib] (partner 0.01 µM)
# Procedure, shortened: as §1
# [4] = compound: CCn1c(-c2nonc2N)nc2cnc(Oc3cccc(NC(=O)c4ccc(OCCN5CCOCC5)cc4)c3)cc21 + NC(=O)Nc1cc(-c2cccc(F)c2)sc1C(=O)N[C@H]1CCCNC1 [AZD7762] (partner 0.2 µM)
# Procedure, shortened: as §1
Cell Line,relative viability ([1]; first compound 0.04 µM),relative viability ([1]; first compound 0.1265 µM),relative viability ([1]; first compound 0.4 µM),relative viability ([1]; first compound 1.265 µM),relative viability ([1]; first compound 4 µM),relative viability ([2]; first compound 0.04 µM),relative viability ([2]; first compound 0.1265 µM),relative viability ([2]; first compound 0.4 µM),relative viability ([2]; first compound 1.265 µM),relative viability ([2]; first compound 4 µM),relative viability ([3]; first compound 0.04 µM),relative viability ([3]; first compound 0.1265 µM),relative viability ([3]; first compound 0.4 µM),relative viability ([3]; first compound 1.265 µM),relative viability ([3]; first compound 4 µM),relative viability ([4]; first compound 0.04 µM),relative viability ([4]; first compound 0.1265 µM),relative viability ([4]; first compound 0.4 µM),relative viability ([4]; first compound 1.265 µM),relative viability ([4]; first compound 4 µM)
SW 1573,0.652,0.58,0.513,0.47,0.497,0.884,0.947,0.83,0.747,0.885,0.251,0.207,0.123,0.196,0.137,,,,,
NCI-H2085,0.456,0.369,0.401,0.43,0.491,0.818,0.789,0.84,0.772,0.845,0.535,0.395,0.373,0.365,0.377,1.09,0.924,0.927,0.634,0.787
NCI-H520,0.784,0.583,0.582,0.582,0.593,0.667,0.719,0.762,0.576,0.602,0.232,0.215,0.217,0.197,0.183,,,,,
SK-LU-1,0.635,0.483,0.465,0.35,0.476,0.892,0.992,0.958,0.985,0.998,0.231,0.155,0.189,0.159,0.172,,,,,
LCLC-103H,0.724,0.731,0.673,0.683,0.639,0.399,0.449,0.462,0.446,0.467,1.08,1.02,1.1,0.721,0.779,0.837,0.743,0.422,0.397,0.404
HCC-15,0.36,0.392,0.372,0.368,0.369,0.217,0.204,0.224,0.236,0.218,0.301,0.227,0.376,0.207,0.249,1.3,1.51,0.974,1.05,0.987
H3255,0.639,0.583,0.572,0.522,0.599,0.59,0.552,0.59,0.568,0.575,1.02,0.819,0.735,0.571,0.599,0.967,0.737,0.742,0.383,0.481
NCI-H1792,0.585,0.389,0.403,,0.522,0.773,0.736,0.82,,0.665,0.477,0.21,0.47,0.299,0.308,0.541,0.37,0.15,0.106,0.11
NCI-H1563,,,,,,0.6,0.619,0.834,0.598,0.887,1.23,0.514,0.482,0.466,0.48,,,,,
NCI-H647,0.501,0.543,0.469,0.238,0.448,0.165,0.173,0.166,0.159,0.135,0.18,0.139,0.269,0.106,0.116,0.523,0.242,0.249,0.193,0.121
NCI-H2126,0.601,0.546,0.565,0.536,0.513,0.75,0.695,0.725,0.657,0.709,1.06,0.903,0.776,,0.635,1.07,0.998,0.832,0.924,0.839
NCI-H727,0.346,0.325,0.386,0.323,0.379,,,,,,0.418,0.264,0.352,0.379,0.413,,0.699,0.539,0.566,0.739
COR-L23,0.569,0.682,0.524,0.47,0.583,0.208,0.199,0.189,0.198,0.206,0.62,0.463,0.447,0.15,0.106,,,,,
HCC-78,0.843,0.712,0.628,0.577,0.562,0.913,0.829,0.905,0.898,0.952,,,,,,0.865,0.821,,0.617,0.906
NCI-H661,0.638,0.591,0.508,0.471,0.49,0.908,0.973,0.941,0.921,0.921,0.995,0.934,0.936,0.739,0.642,,,,,
SK-MES-1,0.569,0.503,0.582,0.516,0.563,1.03,1.01,1,0.993,1.03,0.728,0.681,0.525,0.485,0.37,,,,,
NCI-H1648,0.555,,,0.391,0.519,0.614,,,0.769,0.683,,,,,,0.978,1.02,0.981,1.09,0.693
NCI-H2023,0.533,0.53,0.527,0.513,0.453,0.452,0.25,0.204,0.239,0.232,0.794,0.72,0.67,0.381,0.332,,,,,
NCI-H2009,0.346,0.299,0.281,0.182,0.246,0.98,1.02,0.951,0.992,1.08,1,0.804,0.822,0.599,0.394,,,,,
ABC-1,,,,,,,,,,,0.633,0.617,0.367,0.254,0.248,0.96,0.663,0.445,0.402,0.625
NCI-H1703,,,,,,,,,,,,,,,,,0.111,0.115,0.119,0.123
